Test results reported in patent publication US9624215B2, “Amine derivative or salt thereof” (TOYAMA CHEMICAL CO., LTD., priority 2012, dated 2017).

tested on: normal human neonatal foreskin epidermal keratinocytes (NHEK-F); experiment: Cell proliferation inhibition test; format: cell-based; conditions: Keratinocyte, 72 h, NHEK-F cells, three days incubation, ATPlite or CellTiterGlo, read-out: IC50 (concentration of the compound at which the cell count is reduced by 50%)
Summary of the method: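 IC50 is the compound level halving cell count relative to untreated wells, with counts from ATP-based luminescence (ATPlite or CellTiterGlo). Readout followed 3 days of compound exposure of overnight-attached neonatal foreskin keratinocytes (2×10^3/well, Humedia-EG2 medium).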

| Compound | IC50 [µM] |
| --- | --- |
| O=C(O)c1cc(C2CC2)cnc1Nc1cnc2c(ccn2CC2CCCCC2)c1 [Example 549] | ≤ 0.01 |
| Cc1cc2cc(Nc3ncc(C4CC4)cc3C(=O)O)ccc2n1CC(C)C [Example 550, 5-cyclopropyl-2-((1-isobutyl-2-methyl-1H-indol-5-yl)amino)nicotinic acid] | 0.01 to 0.1 |
| O=C(O)c1cc(C2CC2)cnc1Nc1cc2ccn(Cc3ccccc3)c2cc1F [Example 552, 2-((1-benzyl-6-fluoro-1H-indol-5-yl)amino)-5-cyclopropylnicotinic acid] | ≤ 0.01 |
| O=C(O)c1cc(C2CC2)cnc1Nc1c(F)cc2c(ccn2Cc2ccccc2)c1F [Example 554, 2-((1-benzyl-4,6-difluoro-1H-indol-5-yl)amino)-5-cyclopropylnicotinic acid] | ≤ 0.01 |
| Cn1cc(-c2cccc(F)c2)c2cc(Nc3ncc(C4CC4)cc3C(=O)O)ccc21 [Example 559, 5-Cyclopropyl-2-((3-(3-fluorophenyl)-1-methyl-1H-indol-5-yl)amino)nicotinic acid] | 0.01 to 0.1 |
| Cn1cc(-c2ccc(F)cc2)c2cc(Nc3ncc(C4CC4)cc3C(=O)O)ccc21 [Example 561, 5-cyclopropyl-2-((3-(4-fluorophenyl)-1-methyl-1H-indol-5-yl)amino)nicotinic acid] | 0.01 to 0.1 |
| CC(C)Cn1c(=O)sc2cc(Nc3ncc(C4CC4)cc3C(=O)O)ccc21 [Example 563, 5-Cyclopropyl-2-((3-isobutyl-2-oxo-2,3-dihydro-1,3-benzothiazol-6-yl)amino)nicotinic acid] | 0.01 to 0.1 |
| Cc1ccccc1-c1cn(C)c2ccc(Nc3ncc(C4CC4)cc3C(=O)O)cc12 [Example 567, 5-cyclopropyl-2-((1-methyl-3-(2-methylphenyl)-1H-indol-5-yl)amino)nicotinic acid] | 0.01 to 0.1 |
| Cc1cccc(-c2cn(C)c3ccc(Nc4ncc(C5CC5)cc4C(=O)O)cc23)c1 [Example 569, 5-cyclopropyl-2-((1-methyl-3-(3-methylphenyl)-1H-indol-5-yl)amino)nicotinic acid] | 0.1 to 1 |
| Cc1ccc(-c2cn(C)c3ccc(Nc4ncc(C5CC5)cc4C(=O)O)cc23)cc1 [Example 571, 5-cyclopropyl-2-((1-methyl-3-(4-methylphenyl)-1H-indol-5-yl)amino)nicotinic acid] | 0.01 to 0.1 |
| Cc1c(Nc2ncc(C3CC3)cc2C(=O)O)ccc2c1ccn2Cc1ccccc1 [Example 573] | ≤ 0.01 |
| O=C(O)c1cc(C2CC2)cnc1Nc1ccc2c(ccn2C(=O)c2ccccc2)c1 [Example 575, 2-((1-benzoyl-1H-indol-5-yl)amino)-5-cyclopropylnicotinic acid] | 0.01 to 0.1 |
| COc1cccc(-c2cn(C)c3ccc(Nc4ncc(C5CC5)cc4C(=O)O)cc23)c1 [Example 577, 5-cyclopropyl-2-((3-(3-methoxyphenyl)-1-methyl-1H-indol-5-yl)amino)nicotinic acid] | 0.1 to 1 |
| COc1ccc(-c2cn(C)c3ccc(Nc4ncc(C5CC5)cc4C(=O)O)cc23)cc1 [Example 579, 5-cyclopropyl-2-((3-(4-methoxyphenyl)-1-methyl-1H-indol-5-yl)amino)nicotinic acid] | 0.1 to 1 |
| COc1ccccc1-c1cn(C)c2ccc(Nc3ncc(C4CC4)cc3C(=O)O)cc12 [Example 581, 5-cyclopropyl-2-((3-(2-methoxyphenyl)-1-methyl-1H-indol-5-yl)amino)nicotinic acid] | 0.01 to 0.1 |
| O=C(O)c1cc(C2CC2)cnc1Nc1ccc2c(ccn2C(=O)C2CCCCC2)c1 [Example 583, 2-((1-(cyclohexylcarbonyl)-1H-indol-5-yl)amino)-5-cyclopropylnicotinic acid] | 0.01 to 0.1 |
| Cn1ccc2cc(Nc3ncc(C4CC4)cc3C(=O)O)cc(-c3cc(F)cc(F)c3)c21 [Example 586, 5-cyclopropyl-2-((7-(3,5-difluorophenyl)-1-methyl-1H-indol-5-yl)amino)nicotinic acid] | ≤ 0.01 |
| Cn1ccc2cc(Nc3ncc(C4CC4)cc3C(=O)O)cc(-c3cccc(F)c3F)c21 [Example 587, 5-cyclopropyl-2-((7-(2,3-difluorophenyl)-1-methyl-1H-indol-5-yl)amino)nicotinic acid] | ≤ 0.01 |
| Cn1ccc2cc(Nc3ncc(C4CC4)cc3C(=O)O)cc(-c3ccncc3F)c21 [Example 589, 5-cyclopropyl-2-((7-(3-fluoropyridin-4-yl)-1-methyl-1H-indol-5-yl)amino)nicotinic acid] | 0.01 to 0.1 |
| Cn1ccc2cc(Nc3ncc(C4CC4)cc3C(=O)O)cc(-c3cc(F)ccc3F)c21 [Example 590, 5-cyclopropyl-2-((7-(2,5-difluorophenyl)-1-methyl-1H-indol-5-yl)amino)nicotinic acid] | ≤ 0.01 |
| Cn1ccc2cc(Nc3ncc(C4CC4)cc3C(=O)O)cc(-c3cncnc3)c21 [Example 591, 5-cyclopropyl-2-((1-methyl-7-(pyrimidin-5-yl)-1H-indol-5-yl)amino)nicotinic acid] | 0.1 to 1 |
| Cn1ccc2cc(Nc3ncc(C4CC4)cc3C(=O)O)cc(CCC3CCCCC3)c21 [Example 593, 2-((7-(2-cyclohexylethyl)-1-methyl-1H-indol-5-yl)amino)-5-cyclopropylnicotinic acid] | ≤ 0.01 |

| Compound | IC50 [µM] |
| --- | --- |
| Cn1ccc2cc(Nc3ncc(C4CC4)cc3C(=O)O)cc(/C=C/C(C)(C)C)c21 [Example 594, 5-cyclopropyl-2-((7-((1E)-3,3-dimethylbut-1-en-1-yl)-1-methyl-1H-indol-5-yl)amino)nicotinic acid] | ≤ 0.01 |
| CCOCCCc1cc(Nc2ncc(C3CC3)cc2C(=O)O)cc2ccn(C)c12 [Example 603, 5-cyclopropyl-2-((7-(3-ethoxypropyl)-1-methyl-1H-indol-5-yl)amino)nicotinic acid] | 0.01 to 0.1 |
| CCO/C=C/c1cc(Nc2ncc(C3CC3)cc2C(=O)O)cc2ccn(C)c12 [Example 604, 5-cyclopropyl-2-((7-((E)-2-ethoxyethenyl)-1-methyl-1H-indol-5-yl)amino)nicotinic acid] | 0.01 to 0.1 |
| CCOCCc1cc(Nc2ncc(C3CC3)cc2C(=O)O)cc2ccn(C)c12 [Example 605, 5-cyclopropyl-2-((7-(2-ethoxyethyl)-1-methyl-1H-indol-5-yl)amino)nicotinic acid] | 0.01 to 0.1 |
| Cn1ccc2cc(Nc3ncc(C4CC4)cc3C(=O)O)cc(C3CCCCC3)c21 [Example 607, 2-((7-cyclohexyl-1-methyl-1H-indol-5-yl)amino)-5-cyclopropylnicotinic acid] | ≤ 0.01 |
| COCCCc1cc(Nc2ncc(C3CC3)cc2C(=O)O)cc2ccn(CC(C)C)c12 [Example 608, 5-cyclopropyl-2-((7-(3-methoxypropyl)-1-(2-methylpropyl)-1H-indol-5-yl)amino)nicotinic acid] | ≤ 0.01 |
| COCCCc1cc(Nc2ncc(C3CC3)cc2C(=O)O)cc2ccn(CC3CC3)c12 [Example 609, 5-cyclopropyl-2-((1-(cyclopropylmethyl)-7-(3-methoxypropyl)-1H-indol-5-yl)amino)nicotinic acid] | ≤ 0.01 |
| CCCCCn1ccc2cc(Nc3ncc(C4CC4)cc3C(=O)O)cc(CCCOC)c21 [Example 610, 5-cyclopropyl-2-((7-(3-methoxypropyl)-1-pentyl-1H-indol-5-yl)amino)nicotinic acid] | ≤ 0.01 |
| Cn1cc(C2CCCCC2)c2cc(Nc3ncc(C4CC4)cc3C(=O)O)ccc21 [Example 612, 2-((3-cyclohexyl-1-methyl-1H-indol-5-yl)amino)-5-cyclopropylnicotinic acid] | 0.01 to 0.1 |
| Cn1cc(C2CCCC2)c2cc(Nc3ncc(C4CC4)cc3C(=O)O)ccc21 [Example 614, 2-((3-cyclopentyl-1-methyl-1H-indol-5-yl)amino)-5-cyclopropylnicotinic acid] | 0.01 to 0.1 |
| O=C(O)c1cc(C2CC2)cnc1Nc1ccc2c(ccn2CCCC(F)(F)F)c1 [Example 616, 5-cyclopropyl-2-((1-(4,4,4-trifluorobutyl)-1H-indol-5-yl)amino)nicotinic acid] | 0.01 to 0.1 |
| O=C(O)c1cc(C2CC2)cnc1Nc1ccc2c(ccn2CCCc2ccccc2)c1 [Example 618, 5-cyclopropyl-2-((1-(3-phenylpropyl)-1H-indol-5-yl)amino)nicotinic acid] | ≤ 0.01 |
| COc1ccc(Cn2ccc3cc(Nc4ncc(C5CC5)cc4C(=O)O)ccc32)cc1 [Example 623, 5-cyclopropyl-2-((1-(4-methoxybenzyl)-1H-indol-5-yl)amino)nicotinic acid] | 0.01 to 0.1 |
| Cn1ccc2cc(Nc3ncc(Cl)cc3C(=O)O)cc(-c3ccccc3)c21 [Example 625, 5-chloro-2-((1-methyl-7-phenyl-1H-indol-5-yl)amino)nicotinic acid] | 0.01 to 0.1 |
| O=C(O)c1cc(Br)cnc1Nc1ccc2c(ccn2Cc2cccc(F)c2)c1 [Example 627, 5-bromo-2-((1-(3-fluorobenzyl)-1H-indol-5-yl)amino)nicotinic acid] | 0.01 to 0.1 |
| Cc1cc(Nc2ncc(C3CC3)cc2C(=O)O)cc2ccn(Cc3ccccc3)c12 [Example 629, 2-((1-benzyl-7-methyl-1H-indol-5-yl)amino)-5-cyclopropylnicotinic acid] | ≤ 0.01 |
| COC(=O)c1cc(C2CC2)cnc1Nc1ccc2c(c1)c(-c1cccc(C#N)c1)cn2C [Example 630] | 0.1 to 1 |
| O=C(O)c1cc(C2CC2)cnc1Nc1ccc2c(ccn2Cc2c(F)cccc2F)c1 [Example 634, 5-cyclopropyl-2-((1-(2,6-difluorobenzyl)-1H-indol-5-yl)amino)nicotinic acid] | ≤ 0.01 |
| CCCn1ccc2cc(Nc3ncc(C4CC4)cc3C(=O)O)ccc21 [Example 636, 5-cyclopropyl-2-((1-propyl-1H-indol-5-yl)amino)nicotinic acid] | 0.01 to 0.1 |
| CCCCCCCn1ccc2cc(Nc3ncc(C4CC4)cc3C(=O)O)ccc21 [Example 640, 5-cyclopropyl-2-((1-heptyl-1H-indol-5-yl)amino)nicotinic acid] | 0.01 to 0.1 |
| O=C(O)c1cc(C2CC2)cnc1Nc1ccc2c(ccn2Cc2cc(F)c(F)cc2F)c1 [Example 643, 5-cyclopropyl-2-((1-(2,4,5-trifluorobenzyl)-1H-indol-5-yl)amino)nicotinic acid] | ≤ 0.01 |
